In US4871748A, “Phenylpropargylamine derivatives” (May & Baker Limited, priority 1984, dated 1989):

Assay: Acute Oral Toxicity in Mice (Laboratory Strain)
Conditions: mouse, in vivo, aqueous suspension, mg/kg animal body weight, observed until no deaths for at least three days
Method: Acute Oral Toxicity in Mice (Laboratory Strain)
Groups of mice were dosed orally with graded doses of the test compound in aqueous suspension and observed until there had been no deaths for at least three days. The acute oral LD50, that is to say the dose in mg/kg animal body weight necessary to kill 50% of the mice, was determined from the numbers of animals for each dose which died during the observation period by reference to published tables.
For `CC(=O)O.CC(C)(CO)C1CCN(CC#Cc2cc(C(F)(F)F)cc(C(F)(F)F)c2)CC1` [1 (as acetate), 1-(3,5-bistrifluoromethylphenyl)-3-[4-(1,1-dimethyl-2-hydroxyethyl)piperidino]prop-1-yne acetate], the LD50 was 95 mg/kg. For `CC(C)(CO)C1CCN(CC#Cc2cc(C(F)(F)F)cc(C(F)(F)F)c2)CC1` [1 (as free base), 1-(3,5-bistrifluoromethylphenyl)-3-[4-(1,1-dimethyl-2-hydroxyethyl)piperidino]prop-1-yne], the LD50 was 78 mg/kg. Compound `CC(C)(CO)C1CCN(CC#Cc2cc(C(F)(F)F)cc(C(F)(F)F)c2)CC1.Cl` [1 (as hydrochloride), 1-(3,5-bistrifluoromethylphenyl)-3-[4-(1,1-dimethyl-2-hydroxyethyl)piperidino]-prop-1yne hydrochloride] has an LD50 of 62 mg/kg. With `CC(C)(CO)C1CCN(CC#Cc2cc(C(F)(F)F)cc(C(F)(F)F)c2)CC1.O=[N+]([O-])O` [1 (as nitrate), 1-(3,5-bistrifluoromethylphenyl)-3-[4-(1,1-dimethyl-2-hydroxyethyl)piperidino]prop-1-yne nitrate] the LD50 was 72 mg/kg. `CC(C)(CO)C1CCN(CC#Cc2cc(C(F)(F)F)cc(C(F)(F)F)c2)CC1.NS(=O)(=O)O` [1 (as sulphamate), 1-(3,5-bistrifluoromethylphenyl)-3-[4-(1,1-dimethyl-2-hydroxyethyl)piperidino]prop-1-yne sulphamate] gave an LD50 of 72 mg/kg. `COCC(C)(C)C1CCN(CC#Cc2cc(C(F)(F)F)cc(C(F)(F)F)c2)CC1.Cl` [2 (as hydrochloride), 1-(3,5-bistrifluoromethylphenyl)-3-[4-(1,1-dimethyl-2-methoxyethyl)piperidino]prop-1-yne hydrochloride] showed an LD50 of 68 mg/kg. In the case of `CC(=O)OCC(C)(C)C1CCN(CC#Cc2cc(C(F)(F)F)cc(C(F)(F)F)c2)CC1.Cl` [3 (as hydrochloride), 1-(3,5-bistrifluoromethylphenyl)-3-[4-(1,1-dimethyl-2-acetyloxyethyl)piperidino]prop-1-yne hydrochloride], the LD50 is reported as 68 mg/kg. Work on `CC(C)(C=O)C1CCN(CC#Cc2cc(C(F)(F)F)cc(C(F)(F)F)c2)CC1.Cl` [4 (as hydrochloride), 1-(3,5-bistrifluoromethylphenyl)-3-[4-(1,1-dimethyl-2-oxoethyl)piperidino]prop-1-yne hydrochloride] yielded an LD50 of 68 mg/kg.
